For one compound, EC50 results are on record in article PMC3663987 (Parasitology Research, 2013).

The test has as its target P-glycoprotein (Pgp, ABCB1) (Homo sapiens, UniProt P08183). As to the kind of experiment: Pgp-Glo ATPase stimulation assay, recombinant human Pgp membranes. Type of test: biochemical.

pEC50: −log10 of the molar value.

P-glycoprotein (Pgp, ABCB1), sequence (P08183 whole entry): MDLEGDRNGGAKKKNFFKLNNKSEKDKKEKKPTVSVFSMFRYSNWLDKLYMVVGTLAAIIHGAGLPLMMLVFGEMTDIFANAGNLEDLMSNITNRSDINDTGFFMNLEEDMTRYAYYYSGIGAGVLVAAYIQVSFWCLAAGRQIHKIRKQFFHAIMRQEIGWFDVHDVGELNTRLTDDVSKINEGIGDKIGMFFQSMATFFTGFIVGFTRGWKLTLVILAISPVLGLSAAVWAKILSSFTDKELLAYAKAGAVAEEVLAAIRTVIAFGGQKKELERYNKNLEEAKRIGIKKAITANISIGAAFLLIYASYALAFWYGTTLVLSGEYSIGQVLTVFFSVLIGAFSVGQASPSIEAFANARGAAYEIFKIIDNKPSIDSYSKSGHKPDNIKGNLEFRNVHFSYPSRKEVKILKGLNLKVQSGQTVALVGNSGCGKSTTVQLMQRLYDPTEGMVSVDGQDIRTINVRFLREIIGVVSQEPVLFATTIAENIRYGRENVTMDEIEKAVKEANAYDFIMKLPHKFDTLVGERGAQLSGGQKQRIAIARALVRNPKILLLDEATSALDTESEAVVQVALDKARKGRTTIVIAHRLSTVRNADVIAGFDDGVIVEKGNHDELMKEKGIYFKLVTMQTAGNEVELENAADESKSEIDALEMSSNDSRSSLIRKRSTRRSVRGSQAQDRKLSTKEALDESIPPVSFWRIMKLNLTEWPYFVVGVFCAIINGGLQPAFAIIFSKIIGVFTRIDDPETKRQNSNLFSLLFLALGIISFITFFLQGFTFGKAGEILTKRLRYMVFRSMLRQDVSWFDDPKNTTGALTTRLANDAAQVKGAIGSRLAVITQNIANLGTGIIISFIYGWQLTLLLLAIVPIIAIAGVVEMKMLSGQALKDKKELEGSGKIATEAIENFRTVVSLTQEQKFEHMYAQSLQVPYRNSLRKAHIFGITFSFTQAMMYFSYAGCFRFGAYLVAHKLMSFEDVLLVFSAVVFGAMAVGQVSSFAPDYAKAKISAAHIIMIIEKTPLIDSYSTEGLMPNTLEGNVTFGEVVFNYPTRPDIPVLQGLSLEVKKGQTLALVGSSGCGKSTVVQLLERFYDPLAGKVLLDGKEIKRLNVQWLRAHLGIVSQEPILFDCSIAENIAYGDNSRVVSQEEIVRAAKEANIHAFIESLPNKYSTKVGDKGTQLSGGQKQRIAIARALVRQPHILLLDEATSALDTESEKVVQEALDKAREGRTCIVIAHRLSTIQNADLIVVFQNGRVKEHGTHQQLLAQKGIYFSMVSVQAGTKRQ

As usually defined, the pEC50 is −log10 of the EC50, conventionally taken in molar units. Take `O=C(Cn1ccnc1[N+](=O)[O-])NCc1ccccc1` [Bz, N-Benzyl-2-nitro-1H-imidazole-1-acetamide]: the pEC50 was 3.56.
